# Measurements published in patent publication US10987319B2, “TFEB activator C1 ameliorates app and tau pathology and rescues cognitive deficits in neurodegenerative diseases” (Hong Kong Baptist University, priority 2018, dated 2021).
# Legend:
# Format in all cases: in vivo
# [1] = tested on: APP, CTFs, phosphorylated Tau, total Tau, TFEB, LC3-II; test: Western blotting of hippocampus, female 3×Tg mice
# Method: Homozygous 3×Tg mice (APP KM670/671NL (Swedish), MAPT P301L, PSEN1 M146V) were produced in Hong Kong Baptist University animal house and maintained at 23±2° C. temperature, 60±15% relative humidity with free access to food and water ad libitum.
# Brain tissues were lysed with RIPA buffer (TBS with 1% NP-40, 1% sodium deoxycholic acid, 0.1% SDS, and protease phosphatase inhibitor cocktails) and centrifuged at 15,000 RPM for 30 min. Supernatant is collected and the pellets were further lysed with 2% SDS in RIPA buffer. Protein concentration was estimated by BCA assay. […] Protein chemiluminescence signal was detected by using ECL kit and quantified using ImageJ software.
# [2] = tested on: 3×Tg mice; test: Morris-water maze
# Method: Homozygous 3×Tg mice (APP KM670/671NL (Swedish), MAPT P301L, PSEN1 M146V) were produced in Hong Kong Baptist University animal house and maintained at 23±2° C. temperature, 60±15% relative humidity with free access to food and water ad libitum. Seven months old WT (129/SvJ, n=6 for male mice; n=10 for female mice) and 3×Tg mice (n=6 for male mice; n=10 for female mice) were treated daily with vehicle (1% CMC-Na; Sigma-Aldrich, C5678]), curcumin analogue C1 (2.5 mg/kg, 5 mg/kg, 10 mg/kg) or curcumin (50 mg/kg; Sigma-Aldrich, 08511) suspended in 1% CMC-Na by oral gavage for 7 months. 3×Tg mice were treated with the indicated compounds for 7 months and Morris-water maze (MWM) was used to evaluate the spatial learning memory. MWM is a circular water (21±1° C.) container with 1 meter diameter. Animals were pre-quarantined and acclimatized to the experimenting room at least 1 week before the start of the experiment. The experiment was started with one day visual platform trial. Each mouse underwent 4 visible platform trails (each trial 60 seconds) with different platform placement, positioned above the water level. Hidden platform training was conducted after mixing a non-toxic paint in the water. Mice were trained for 6 continuous days, each day composed of different session with 4 hidden platform trials (each trial 60 seconds). Each session was designed with randomized animal introduction pattern into the water maze with unchanged platform position. Each trial was conducted with 30 min inter-trial interval and provided with external cues. To assess the long term spatial memory retrieval a probe trial (60 seconds) was conducted 24 h after the last training session. During probe trial water maze was divided into 4 quadrants. The hidden platform in the target quadrant was removed after determining its location. Ethnovision XT software was used to observe and record the swimming pattern. During hidden platform training sessions, time spent to find the platform was taken as a parameter to evaluate memory acquisition. In probe trial percentage of time spent in the target quadrant compared to the other 3 quadrants was calculated.
# [3] = tested on: Aβ plaques; test: Immunohistochemistry of Aβ plaques (4G8 antibody), 5×FAD mice
# Method: (§1) Male 5×FAD mice were purchased from Jackson laboratories (Stock number 006554) and maintained at 23±2° C. temperature, 60±15% relative humidity with free access to food and water ad libitum. 5×FAD male mice were inbred with wild-type (WT, C57/BL6) female mice to produce heterozygous offspring. Offspring were genotyped to select 5×FAD (APP KM670/671NL (Swedish), APP I716V (Florida), APP V717I (London), PSEN1 M146L (A>C), PSEN1 L286V) gene mutations mice. Two months old WT and 5×FAD mice (male and female, n=10-14 per group) were treated daily with vehicle (1% sodium carbonyl methylcellulose [CMC-Na; Sigma-Aldrich, C5678]), curcumin analogue C1 (5 mg/kg, 10 mg/kg) or curcumin (50 mg/kg; Sigma-Aldrich, 08511) suspended in 1% CMC-Na by oral gavage for 4 months.
# Mice half brains were fixed with 4% paraformaldehyde in PBS overnight and dehydrated in 30% sucrose in PBS for at least 24 h. Brain sections (30 μm) were cut on a microtome and stored at 4° C. in PBS+0.1% sodium azide. Sections were permeabilized for 10 min with cold PBS containing 0.5% Triton X-100 and blocked with 3% bovine serum albumin for 1 h at room temperature. The sections were incubated with biotinylated 4G8 antibody (800701, Biolegend) overnight, and then incubated with Avidin-Biotin enzyme complex (Vecstatin-ELITE ABC-HRP kit) and Aβ plaques were visualized by DAB peroxidase and quantified using ImageJ software.
# [4] = tested on: 5×FAD mice; test: Contextual fear conditioning
# Method: as §1
# Contextual fear conditioning (CFC) was used to evaluate the fear memory reconsolidation of 5×FAD mice after treatment. The experiment was conducted 30 min after the drug treatment in ANY maze fear conditioning system under licensed ANY maze tracking system connected to a Windows XP computer. A digital camera was installed on each chamber and signals were sent to the computer for analysis. The experiments were conducted in two sound proof chambers. All the experiments were conducted with continuous 40 units of white noise and 40 lux white light. During training, mice were allowed to explore the platform for 2.5 min and then received 3 repeated footshock cycles (30 s) at 30 s intervals, each started with a cue tone (28 s, 1500 Hz) and ended by a footshock ([…], 2 s). On the second day the mice were allowed to explore the platform for 3 min followed by a cue tone (30 s, 1500 Hz) without footshock, and the freezing time was recorded. Contextual fear memory formation and the subsequent remote memory stabilization were evaluated by scoring freezing index (the absence of all but respiratory movement).
# [5] = tested on: 3×Tg mice; test: Open-field test
# Method: Homozygous 3×Tg mice (APP KM670/671NL (Swedish), MAPT P301L, PSEN1 M146V) were produced in Hong Kong Baptist University animal house and maintained at 23±2° C. temperature, 60±15% relative humidity with free access to food and water ad libitum. Seven months old WT (129/SvJ, n=6 for male mice; n=10 for female mice) and 3×Tg mice (n=6 for male mice; n=10 for female mice) were treated daily with vehicle (1% CMC-Na; Sigma-Aldrich, C5678]), curcumin analogue C1 (2.5 mg/kg, 5 mg/kg, 10 mg/kg) or curcumin (50 mg/kg; Sigma-Aldrich, 08511) suspended in 1% CMC-Na by oral gavage for 7 months. 3×Tg mice were treated with the indicated compounds for 7 months and then the open-field test was performed to evaluate the exploratory behavior in novel environment. The experiment was conducted 30 min after last dosing time. Mice placed in the center of an empty open field (25 cm×25 cm) were allowed to explore the environment for 5 min without any external disturbance. Ethnovision XT software was used to measure the patterns of movement, time spent in the center and margin, velocity, distance traveled as indicators of agility and exploration.
# [6] = C1 10 mg/kg vs curcumin 50 mg/kg
compound,measurement,setting,value
"COc1ccccc1/C=C/C(=O)/C=C/c1ccccc1OC [Compound C1, 1,5-bis(2-methoxyphenyl)penta-1,4-dien-3-one]",hippocampal CTFs,[1]; 10 mg/kg oral 7 months,significantly reduced
same,hippocampal Fl-APP levels,[1]; 10 mg/kg oral 7 months,but not Fl-APP levels
same,"levels of phosphorylated Tau (PHF1, AT8)","[1]; hippocampus, 10 mg/kg oral 7 months",significantly decreased
same,levels of LC3-II,[1]; oral 7 months,significantly increased
same,levels of nuclear TFEB,[1]; oral 7 months,significantly increased
same,"percentage of time spent in the target quadrant, probe trial, vs vehicle",[2]; 2.5 mg/kg oral 7 months,significantly increased
same,"percentage of time spent in the target quadrant, probe trial, vs vehicle",[2]; 5 mg/kg oral 7 months,significantly increased
same,distance traveled to find the hidden platform vs vehicle,[2]; 10 mg/kg oral 7 months,significantly reduced
same,"percentage of time spent in the target quadrant, probe trial, vs vehicle",[2]; 10 mg/kg oral 7 months,significantly increased
same,target recognition compared with curcumin,[2]; [6],much better improvement in target recognition than curcumin
same,Aβ plaque load in cortico-hippocampal sections,[3]; high dosage 10 mg/kg oral 4 months,significant reduction
same,Aβ plaque load in cortico-hippocampal sections,[3]; low dosage 5 mg/kg oral 4 months,significant reduction
same,freezing index (memory reconsolidation) vs vehicle,"[4]; 10 mg/kg oral daily 4 months, P<0.001",significant memory reconsolidation
same,memory improvement compared with curcumin,[4]; [6],better memory improvement than curcumin
same,time spent in the center vs vehicle,"[5]; 3×Tg mice, 2.5, 5, 10 mg/kg oral 7 months",dose-dependently decreased
same,exploratory behavior,"[5]; 3×Tg mice, high dose 10 mg/kg oral 7 months, P<0.001",almost recovered the exploratory behavior to the levels of WT mice
